Results taken from patent US20230277491A1, “PHARMACEUTICAL COMBINATION COMPRISING GLYCOLIC ACID AND L-ALANINE” (priority 2020, published 2023).

Assays:
HeLa cells [1] = assay: NAD(P)H live-cell microscopy; type: cell-based; settings: 5 mM, FIG. 13
Procedure: All values were referenced to the value obtained before substance addition.
NAD(P)H live-cell microscopy on HeLa cells was performed as previously described. Briefly, NAD(P)H fluorescence intensity time series were performed on a ZEISS LSM880 inverted confocal equipped with an incubation chamber to maintain 37 Celsius degree and 5% of CO2. […] In order to maximize the transmission efficiency of the system in excitation and detection and reduce the aberrations due to the watery environment, a ZEISS Plan C-ApoChromat 40×/1.2 Water lens with depth compensating correction collar was used. […] The sampling factor in XY (pixel size) of each image was equal to 208 nm, which lead to a final resolution of approximately 600 nm. For each image a volume of 5 μm around the specimen central plane was taken by acquiring 3 planes separated by a Z-step of 2.5 μm.
Time series measurements were obtained with 5 min time resolution. Fluorescence intensity levels were extracted using FIJI Image Analysis Freeware

cortical neurons = assay: Calcium imaging on primary cortical neurons (SOCE, glutamate-triggered action potential); type: cell-based, mouse; settings: FIG. 15
Procedure: GA enhances SOCE and calcium influx during glutamate-triggered action potentials. Fluorescent microscopy images in a show the effect of calcium, glutamate and ionomycin on intracellular calcium in Fluo-4 AM charged cortical neurons at different time points.
Primary cortical neuronal cell cultures were prepared from E15.5 embryos. Briefly, brain cortex from E15.5 pregnant wild type C57Bl/6J or PARK-7^−/− mice were dissected and placed in cold HBSS without Ca2+ and Mg2+(Sigma Aldrich H6648, Germany, EU). Once freed from all other cerebral structures, cortex were placed in an empty petri dish, sliced with the help of a scalpel and trypsinized using a 1:1 mixture of Trypsin (Gibco 25200-056):HBSS at 37° C. for 7 min. The samples were then centrifuged for 4 min. at 800 rpm and the supernatant was replaced with plating medium (89% Neurobasal A, 8.9% FBS, 0.9% L-glutamine, 0.9% N2 supplement and 0.4% P/S). […]
Variations in the Fluo-4 AM fluorescence during Ca^2+ and/or glutamate addition were analyzed using FIJI Image Analysis Freeware. The ROIs were determined using the standard deviation function for the stack of images before and after the addition of 1.8 mM CaCl2 (for changes in intracellular Ca^2+) or before and after the addition of glutamate. […] Once all ROIs were identified and selected, the MFI of each ROI for each time-point was measured with the measure function of the program to generate a matrix with the raw MFI values for each ROI for each time point. […] To determine the effect of GA and DL on Ca^2+ influx after CaCl2 addition and after glutamate addition, all ROIs where normalized using a max-min normalization as previously described: ([Ca^2+]Ca—[Ca^2+]t0/([Ca^2+]ionomycine-[Ca^2+]t0) Once the new matrix with the normalized values was generated, we determined the area under the curve (AUC) in excel using the formula: (Y1+Y2)/2*(X2−X1). The AUC was then obtained as the sum of all the generated values.

HeLa cells [2] = assay: Intracellular calcium, Fluo4-AM loaded HeLa cells, fluorescent plate reader; type: cell-based; settings: FIG. 12
Description: HeLa cells were loaded with Fluo4-AM and fluorescence was monitored with the help of a fluorescent plate reader. Values are normalized to the initial fluorescent value.

dopaminergic neurons = assay: Morphology of dopaminergic TH+ neurons in primary mesencephalic culture; type: cell-based, mouse; settings: 5 mM GA, FIG. 14
Procedure: Effect of GA treatment on the morphology of dopaminergic neurons. Fluorescent microscopy images on the left show to TH+ neurons in a primary mesencephalic cell culture with (GA) and without (Control) treatment. […] FIG. 16:
Primary mesencephalic neuronal cell cultures were prepared as previously described. Briefly, E14.5 embryos were obtained from C57JBL6 pregnant mice after cervical dislocation. Brain mesencephali were dissected under the microscope and digested with Trypsin-EDTA 0.12% (Life Technologies, USA) for 7 min. The trypsin reaction was then stopped by adding basic medium (BM), containing Neurobasal A medium (Gibco, USA), 1 mg/mL Pen/Strep, 10% FCS, and […] L-Glutamine, and cells were mechanically dissociated using a fire-polished Pasteur pipette. Medium was fully replaced after 5 min, centrifugation at 1200 rpm, aspiring the supernatant and adding 8 mL of fresh BM to the pellet. Concentration of cells in the medium was estimated using a Neubauer chamber and a 100 μL of medium containing 10^6 cells/mL plated per well in a 96-well plate (Greiner Sensoplate, Germany, EU). […]
[…] The effect of GA and DL on dopaminergic neurons was assessed through semi-automatic quantification of neurite length and width of TH+ neurons after treatment. […] Dopaminergic TH^+ neurons were observed using an inverted fluorescence microscope (Olympus) under a 20× objective.

[3] = human, in vivo, 15 weeks
Description: Potential side effects were closely monitored.

patients with ALS = assay: Individualised clinical trials in ALS patients: therapeutic effect (creatine kinase, gripping force, muscle strength); settings: human patients, in some cases
Procedure: Gripping force measured in kilograms with the help of a Digital Hand Dynamometer once a week to every two weeks.
Evolution of the muscle strength on the right arm was measured once a week to every two weeks using the Janda Muscle Strength Scale.
Patients with ALS were recruited for the study and agreed to all legal regulations surrounding the curative attempt. Potential side effects were closely monitored. Liver and kidney values were checked once a week (1 day after dosing), in order to monitor whether any unwanted side effects were observed. To test the therapeutic effect, the evolution of the ALS score and strength evolution were measured over time.
All patients also received 6 grams of L-Alanine per day.
The above-mentioned treatment regime was conducted in 4 patients, either with FUS, TARDBP or SOD-1 mutations underlying their ALS. […] The patients were treated between 4 months and 17 months.

O=C(O)CO [GA, 2-hydroxyethanoic acid]
mitochondrial NAD(P)H production (HeLa cells [1]): increases mitochondrial NAD(P)H production | intracellular calcium during the glutamate-triggered action potential (cortical neurons; 2.5 mM GA): higher increases in intracellular calcium during the action potential | storage operated calcium entry (SOCE) (cortical neurons; 2.5 mM GA, after addition of calcium): increased storage operated calcium entry (SOCE) | calcium transients (cortical neurons): bigger calcium transients | intracellular calcium (Fluo4-AM fluorescence normalized to initial value) (HeLa cells [2]): reduce intracellular calcium | morphology of dopaminergic neurons (neurite and axon length, secondary ramifications) (dopaminergic neurons): increases the length of the neurites and the main axon and the number of secondary ramifications | GA dose at which reactive instant feces deposition was observed [3]: above 120 mg/kg | GA dose leading to reactive instant feces deposition [3]: higher than 150 mg/kg | GA dose at which efficacious doses were first observed (patients with ALS): above 70 mg/kg
